In the NIST ThermoML archive (doi:10.1021/je2013878):
Numbers after ± are expanded uncertainties.

Experiment: activity coefficient (dimensionless); of the first substance listed, at infinite dilution; xn = mol fraction of the nth substance listed
Settings: 313.15 K; 101 kPa; Liquid; Chromatography; x1 = 0

For `C=CC(O)CCCCC` (configuration not stated) [1-octen-3-ol] + O, which activity coefficient is on record?
The activity coefficient was 2160 ± 230.

With `C=CC(O)CC` (configuration not stated) [1-penten-3-ol] + O as the compound, how does the activity coefficient read?
Its activity coefficient is 49 ± 5.

Which activity coefficient does the source give for `CCC(=O)C(C)=O` [2,3-pentanedione] + O here?
The activity coefficient was 160 ± 17.

With `CC(C)CC=O` [3-methylbutanal] + O as the compound, how does the activity coefficient read?
Its activity coefficient is 179 ± 19.

Which activity coefficient does the source give for `O=Cc1ccccc1` [benzaldehyde] + O here?
Its activity coefficient is 570 ± 60.

Which activity coefficient does the source give for `CCOC(C)=O` [ethyl acetate] + O here?
Its activity coefficient is 71 ± 7.

For `CCCCCC=O` [hexanal] + O, which activity coefficient is on record?
The activity coefficient was 601 ± 63.
